Assay results taken from article PMC6286365 (Scientific Reports, 2018).
pIC50: −log10 of the molar value. Entries after “also recorded” stand apart in the source; their conditions may differ.

Columns and labels:
acid sphingomyelinase = molecular target: T1, acid sphingomyelinase (Homo sapiens, UniProt P17405); assay: Acid sphingomyelinase inhibition (results not shown); assay type: biochemical
T1 sequence (P17405 47-631): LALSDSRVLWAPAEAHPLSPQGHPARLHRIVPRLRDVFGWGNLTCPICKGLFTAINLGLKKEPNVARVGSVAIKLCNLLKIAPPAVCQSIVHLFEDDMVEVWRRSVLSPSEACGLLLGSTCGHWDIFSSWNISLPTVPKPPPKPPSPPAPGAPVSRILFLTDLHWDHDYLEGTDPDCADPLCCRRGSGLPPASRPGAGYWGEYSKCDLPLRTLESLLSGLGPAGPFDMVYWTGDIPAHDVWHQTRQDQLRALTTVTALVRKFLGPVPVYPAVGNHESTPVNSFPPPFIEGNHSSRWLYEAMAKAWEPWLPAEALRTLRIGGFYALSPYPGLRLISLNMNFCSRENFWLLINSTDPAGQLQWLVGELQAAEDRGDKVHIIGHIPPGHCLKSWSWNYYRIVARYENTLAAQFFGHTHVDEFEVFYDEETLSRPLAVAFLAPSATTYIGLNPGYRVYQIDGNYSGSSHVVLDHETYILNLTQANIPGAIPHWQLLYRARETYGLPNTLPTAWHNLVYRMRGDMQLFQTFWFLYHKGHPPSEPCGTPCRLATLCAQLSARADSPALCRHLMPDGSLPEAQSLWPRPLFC

[1] = Metabolic stability in human liver microsomes with NADPH; assay type: in vitro ADME; settings: pH 7.4, 1 μM compound, read-out: percent remaining
Procedure: One potential liability when using chemical probes in vivo is lack of metabolic stability which structurally inactivates the compound before it can reach its molecular target. […] Percent of drug remaining over time was determined by liquid chromatography–tandem mass spectrometry analysis (LC/MS/MS).
Metabolic stability assay was conducted in mouse or human liver microsomes as we have described previously with minor modifications. Briefly, the reaction was carried out using potassium phosphate buffer (100 mM, pH 7.4), in the presence of an NADPH regenerating system (compound final concentration was 1 μM; 0.2 mg/mL microsomes). Compound disappearance was monitored over time using a liquid chromatography and tandem mass spectrometry (LC/MS/MS) method. Chromatographic analysis was performed using an Accela ultra high-performance system consisting of an analytical pump and an autosampler coupled with a TSQ Vantage mass spectrometer (Thermo Fisher Scientific Inc., Waltham, MA). […] The mobile phase consisted of 0.1% formic acid in acetonitrile and 0.1% formic acid in water with gradient elution.

primary astrocytes = assay: Inhibition of EV release from primary astrocytes (FBS withdrawal, nanoparticle tracking); assay type: cell-based, rat; settings: 2 h treatment, dose range of concentrations
Procedure: Independent laboratories have shown that pharmacological and genetic inhibition of nSMase2 blocks EV secretion from glial cells. […] Two hours after treatment, EVs were isolated from the media and quantified by nanoparticle tracking analysis. […] Cells were fixed and immunofluorescence labeling for GFAP was performed.
Media was collected after 2 h incubation and centrifuged at 2700 × g for 15 min at 4 °C. Supernatant was collected and the number of extracellular vesicles (EVs) was quantified using ZetaView Nanoparticle Tracker. The mean concentration of EVs/mL (±SEM) was calculated from 4 replicate experiments. […] Astrocytes grown in complete medium were used as no treatment control. Cells were fixed and stained with anti-GFAP antibody (1:500, Sigma). Fluorescence intensity was measured using Image J. (C) Quantitation of fluorescence in (B). Bar graph represents background corrected mean fluorescence intensity measured from 100 astrocytes per condition. Error bars represent standard error of mean. One-way ANOVA followed by Tukey’s posthoc test was performed.
Potential inhibition of test compounds on EV release from primary astrocytes was carried out as previously described (Dickens et al., 2017). Briefly, rat primary astrocytes were seeded onto 6-well plates at a density of 20,000 cells/well. Twenty-four hours after seeding, astrocytes were washed with PBS and the medium changed to media without FBS. Absence of FBS mimics a trophic factor withdrawal stimulus causing EVs to be released from astrocytes via an nSMase2-dependent pathway. […] The supernatant was collected and the number of EVs quantified using ZetaView Nanoparticle Tracker (Particle Metrix GmBH, Meerbusch, Germany) and the corresponding ZetaVeiw software (8.03.04.01). Nanosphere size standard 100 nm (Thermo Scientific) was used to calibrate the instrument prior to sample readings. […] For each sample 1 mL of the supernatant was injected into the sample-carrier cell and the particle count measured at 5 positions, with 2 cycles of reading per position. […] Mean concentration of EVs/mL (±SEM) was calculated from 4 replicates.

COc1cc(-c2nc(-c3cccs3)c(-c3ccccc3)[nH]2)cc(OC)c1O [DPTIP, 2,6-Dimethoxy-4-(5-Phenyl-4-Thiophen-2-yl-1H-Imidazol-2-yl)-Phenol]
pIC50 (acid sphingomyelinase): < 4.00
remaining at 1 h, 1 μM [1]: 100%
effect on EV release from primary astrocytes (primary astrocytes): dose-dependently inhibited EV release; also recorded: inhibited EV release from astrocytes in a dose dependent manner
